# Results from patent US20030077298A1, “Activators and ligands of PPAR-beta/delta for the treatment of skin conditions” (The Regents of the University of California, a California …, priority 2001, published 2003).
# Where two headings read alike, the source gives them in different places.
# How the values were obtained:
# [1] = tested on: cultured human keratinocytes; experiment: PPAR-beta/delta mRNA in keratinocytes treated with inflammatory stimuli (Northern blot); assay type: cell-based; details: LPS; IL1-beta 50 ng/ml; TNF-alpha 100 ng/ml; UV-B 30 mJ/cm^2
# Experimental: Second-passage keratinocytes isolated from newborn foreskins were cultured in serum-free keratinocyte growth medium (KGM; Clonetics, San Diego, Calif., USA). […] Control keratinocytes were treated with vehicle (0.05%) ethanol, or sham irradiated. UV exposure was performed in phosphate buffered saline which was replaced by serum free KGM after irradiation. For cytokine treatment, 0.1% bovine serum albumin was added to the medium.
# (§1) PolyA RNA was purified using oligo(dT) cellulose (Amersham Pharmacia). RNA was electrophoresed through 1% agarose gels containing 2.2 M formaldehyde, and RNA integrity was visualized by ethidium bromide staining. The RNA was then transferred to a nylon membrane and blots were hybridized overnight at 65° C. with the appropriate ^32P-labeled cDNA probes. Probes were ^32P-labeled by random priming. Washes were performed in 0.1% SSC and 0.1 SDS for 20 minutes at room temperature and at 65° C., respectively. Autoradiography was performed at −70° C. Blots were probed with GAPDH to control for normal loading. Bands of the correct size were quantified by densitometry using Quantityone software (Bio-Rad Laboratories, Inc., Hercules, Calif., USA).
# [2] = tested on: ears of CD-1 mice; experiment: TPA-induced irritant contact dermatitis, ear thickness; assay type: in vivo, mouse; details: for effect on TPA induced increase in ear thickness: GW1514 4 mM in acetone, topical, 45 minutes and 4 hours after TPA, FIG. 9
# Experimental: TPA was applied to the inner and outer surface of the left ears of male mice. The right ears were treated with vehicle alone (acetone). […] Ear thickness was measured with a digital caliper (Mitutoyo Corp., Tokyo, Japan).
# [3] = molecular target: T1, PPAR-alpha (Homo sapiens, UniProt Q07869); details: known cross-reactive PPAR agonists; cited from earlier work
# T1 sequence (Q07869 1-468): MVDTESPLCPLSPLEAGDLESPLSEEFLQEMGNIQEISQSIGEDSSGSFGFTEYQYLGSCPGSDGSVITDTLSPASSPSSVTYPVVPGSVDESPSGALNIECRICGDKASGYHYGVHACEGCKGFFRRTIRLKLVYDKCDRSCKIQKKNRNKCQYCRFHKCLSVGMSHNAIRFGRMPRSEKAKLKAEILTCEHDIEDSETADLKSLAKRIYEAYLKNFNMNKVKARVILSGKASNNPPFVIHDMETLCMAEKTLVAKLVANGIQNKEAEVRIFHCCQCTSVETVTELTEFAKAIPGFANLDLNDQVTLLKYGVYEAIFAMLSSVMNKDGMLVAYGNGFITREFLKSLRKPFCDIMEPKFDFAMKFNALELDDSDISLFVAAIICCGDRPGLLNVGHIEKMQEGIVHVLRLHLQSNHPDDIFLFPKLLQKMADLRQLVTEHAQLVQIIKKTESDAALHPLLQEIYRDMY
# [4] = tested on: epidermal permeability barrier of hairless mice; experiment: Permeability barrier recovery (TEWL) after barrier disruption; assay type: in vivo, mouse; details: for percent barrier recovery: pretreated 4 mM twice daily for three days
# Experimental: Permeability of the epidermal barrier was then experimentally disrupted by the repeated application of cellophane tape, solvent extraction (repeated topical acetone), or by detergent treatment (repeated topical sodium dodecyl sulfate) until the transepidermal water loss (TEWL) reached 6-8 mg/cm^2/h. Recovery of barrier function was determined by measurement of transepidermal water loss (TEWL) with an electrolytic water analyzer (MEECO®, Warrington, Pa.) at 3 and 6 hours after barrier disruption.
# Barrier recovery is reported as percent barrier recovery from the initial induced defect.
# [5] = molecular target: T1, PPAR-alpha; experiment: PPAR subtype activation (statement in description); details: "it has now been discovered"; no method given
# [6] = tested on: normal epidermis of hairless mice; experiment: Topical treatment of normal epidermis: filaggrin/loricrin immunohistochemistry and PCNA staining; assay type: in vivo, mouse
# Source text: At the conclusion of the experiment the animals were sacrificed. Mouse skin samples were fixed with 4% formaldehyde in phosphate-buffered saline (PBS) and embedded in paraffin. Sections (6 μm) were collected on microscope slides and used for immunohistochemistry. Photographs were taken with a Zeiss microscope and digital images were captured and assembled by appropriate software. Fillagrin and loricrin protein expression were detected by immunohistochemistry using antibodies purchased from BabCo (Richmond, Calif.). Proliferating keratinocytes were quantified in sections by staining with biotinylated anti-proliferating cell nuclear antigen (PCNA) antibody (CalTag Laboratories, Burlingame, Calif.).
# [7] = tested on: hyperplastic epidermis of hairless mice; experiment: Experimentally induced epidermal hyperplasia: filaggrin/loricrin and PCNA staining; assay type: in vivo, mouse; details: 4 mM in acetone topically for three days after induction of hyperplasia
# Experimental: The skin of 6-8 week old hairless mice (Simonsen Laboratories, Gilroy, Calif.) was treated twice a day for 3 days with acetone soaked cotton balls until the transepidermal water loss reached 6-8 mg/cm^2/h. […] At the completion of the experimental treatments, the animals were sacrificed and skin samples were taken and fixed with 4% formaldehyde in phosphate-buffered saline (PBS) and embedded in paraffin. Sections (6 μm) were collected on microscope slides and used for immunohistochemistry. Photographs were taken with a Zeiss microscope and digital images were captured and assembled by appropriate software. Fillagrin and loricrin protein expression were detected by immunohistochemistry using antibodies purchased from BabCo (Richmond, Calif.). Proliferating keratinocytes were quantified in sections by staining with biotinylated anti-proliferating cell nuclear antigen (PCNA) antibody (CalTag Laboratories, Burlingame, Calif.).
# [8] = tested on: cultured human keratinocytes; experiment: Keratinocyte differentiation in vitro, mRNA levels by Northern blot; assay type: cell-based
# Experimental: Therefore, to determine if GW1514 could stimulate keratinocyte differentiation, in vitro changes in the levels involucrin and transglutaminase I mRNA, and involucrin protein expression were determined when cells were cultured in the presence of GW1514. In addition, levels of PPAR-betaldelta mRNA were compared in cells treated with GW1514 versus untreated controls.
# (§2) Second-passage keratinocytes isolated from newborn foreskins were cultured in serum-free keratinocyte growth medium (KGM; Clonetics, San Diego, Calif., USA). […] Poly-A mRNA was isolated and transglutaminase I, involucrin and PPAR-beta/delta mRNA levels were measured by Northern blot analysis (FIG. 1).
# as §1, with “QuantityOne” for “Quantityone”, “Laboratories” for “Laboratories,”
# [9] = tested on: epidermis of PPARα−/− and PPARα+/+ mice; experiment: Topical treatment of PPAR-alpha knockout and wild type mice: filaggrin/loricrin immunohistochemistry; assay type: in vivo, mouse; details: 4 mM topical twice a day for 6 days
# Experimental: The epidermis of PPARα knockout (PPARα−/−) mice, as well as the epidermis of wild type(PPARα+/+) mice was treated with topical applications of GW1514. Expression of the in vivo differentiation markers loricrin and filaggrin was measured by immunohistochemical staining following treatment.
# PPAR-alpha−/−mice in a mixed C57BL/6 and Sv129 background were compared with age matched C57BL/6 and Sv129 wild type controls. […] At the conclusion of the experiment, animals were sacrificed. Skin samples were taken and fixed with 4% formaldehyde in phosphate-buffered saline (PBS) and embedded in paraffin. Sections (6 μm) were collected on microscope slides and used for immunohistochemistry. Photographs were taken with a Zeiss microscope and digital images were captured and assembled by appropriate software. Fillagrin and loricrin protein expression were detected by immunohistochemistry using antibodies purchased from BabCo (Richmond, Calif.).
# [10] = tested on: cultured human keratinocytes; experiment: Keratinocyte differentiation in vitro, involucrin protein by Western blot; assay type: cell-based; details: 8 μM
# Experimental: as §2
# Total cellular protein was isolated from cultured keratinocytes and involucrin protein levels were assessed by Western blot analysis. The cells were homogenized by sonication, their protein content was determined, and gels were loaded with equal amounts per sample and lane. Western Immunoblotting was performed using 7.5% SDS-PAGE, as described previously (Laemmli, 1970). Following transfer of protein to PVDF membranes, blots were incubated overnight with primary antibody at 4° C. Secondary antibody (peroxidase conjugated anti mouse; Amersham PharmaciaBiotech Inc., Piscataway, N.J.) was applied and blots were incubated at room temperature for 2 hours. Final detection was performed by chemiluminescence (ECL kit; Amersham). Involucrin protein was detected with a monoclonal mouse anti-human involucrin antibody.
# [11] = 4 mM in acetone, topical, twice a day for 6 days, vs vehicle
# [12] = 8 μM vs vehicle (0.05% ethanol), Northern blot
compound,measurement,setting,value
IL1-β: cytokine used as inflammatory stimulus on cultured keratinocytes,PPAR-beta/delta mRNA levels relative to untreated control,[1],nearly twice
"CCCCCCCCCCCCCC(=O)O[C@@H]1[C@@H](C)[C@@]2(O)[C@@H](C=C(CO)C[C@]3(O)C(=O)C(C)=C[C@@H]23)[C@@H]2C(C)(C)[C@]12OC(C)=O [TPA, 12-O-tetradecanoylphorbol-13-acetate]",increase in ear thickness following TPA treatment,"[2]; 10 μl of 0.03% TPA in acetone, single topical application",approximately 2 fold
same,increase in ear weight following TPA treatment,"[2]; 10 μl of 0.03% TPA in acetone, single topical application, not shown",approximately 2 fold
Cc1cccc(Nc2cc(Cl)nc(SCC(=O)O)n2)c1C [WY 14643],activation of PPAR-alpha,[3],activates
C[C@H]1C[C@H]2[C@@H]3CCC4=CC(=O)C=C[C@]4(C)[C@@]3(F)[C@@H](O)C[C@]2(C)[C@@]1(O)C(=O)CCl [clobetasol],effect on TPA induced increase in ear thickness,[2],anti-inflammatory effect
lipopolysaccharide [reference compound],PPAR-beta/delta mRNA levels relative to untreated control,[1],nearly twice
"Cc1cc(SCc2oc(-c3ccc(C(F)(F)F)cc3)nc2C)ccc1OCC(=O)O [GW1514, (2-methyl-4-(((4-methyl-2-(4-trifluoromethylphenyl)-1,3-oxazol-5-yl)methyl)sulfanyl)phenoxy)acetic acid]",recovery of permeability barrier function,"[4]; regardless of the method of barrier perturbation (tape, acetone, detergent)",accelerated recovery
same,percent barrier recovery,[4]; three hour post tape-strip,~50%
same,percent barrier recovery,[4]; three hours after repeated topical acetone,about 30%
same,activation of PPAR-alpha,[5],not also activators of PPAR-alpha
same,filaggrin immunohistochemical staining,[6]; [11],increased levels of immunohistochemical staining
same,loricrin immunohistochemical staining,[6]; [11],increased levels of immunohistochemical staining
same,cell proliferation (PCNA),[6]; after six days treatment,at normal levels
same,expression of in vivo differentiation markers,[6]; after three days of treatment,increased expression
same,pool of proliferating cells (PCNA),[6]; three days after treatment,transiently increased
same,expression of differentiation marker filaggrin,[7],increase
same,expression of differentiation marker loricrin,[7],increase
same,number of proliferating nuclei as measured by PCNA staining,[7],did not produce an increase
same,PPAR-beta/delta mRNA levels,[8]; [12],increased levels
same,involucrin mRNA levels,[8]; [12],increased levels
same,transglutaminase I mRNA levels,[8]; [12],increased levels
same,induction of differentiation markers compared with high calcium concentrations in culture medium,"[8]; 8 μM, FIG. 1",more pronounced
same,filaggrin immunohistochemical staining,[9]; PPAR-alpha knockout (−/−) mice,increased immunohistochemical staining
same,loricrin immunohistochemical staining,[9]; PPAR-alpha knockout (−/−) mice,increased immunohistochemical staining
same,filaggrin immunohistochemical staining,[9]; wild type (+/+) mice,increased immunohistochemical staining
same,loricrin immunohistochemical staining,[9]; wild type (+/+) mice,increased immunohistochemical staining
same,increase in involucrin protein expression,[10],5 fold
same,effect on TPA induced increase in ear thickness,[2],reduced the magnitude
